The test system of one data set is KG-1 cells. As to the kind of experiment: AML KG-1 model in NOD/SCID mice. It counts as in vivo. How it is done:
The in vivo mouse model for human AML uses SCID/NOD mice (Jackson Laboratories) inoculated with KG-1 cells derived from a human AML cell line.
In a first experiment, NOD/SCID mice were pretreated with 100 mg/kg CYTOXAN®. Four days post CYTOXAN® injection, KG-1 cells were injected intravenously into the tail vein of six groups of mice. (Table N, Groups 2 and 5-9). One group of mice (Table N, Group 1) was injected with PBS alone (control). [273.][273.]
Beginning 19 days post KG-1 injection mice were treated with: CONY1, Doxorubicin, CONY1-Doxorubicin conjugate, or Mylotarg®. (Mylotarg® is a monoclonal antibody (anti CD33) conjugated chemically to calcheamicin recently approved by the FDA for treatment of AML patients age 60 and over in a first relapse.) Mice were treated once or three times per week for three weeks. One group (group 2) of KG-1 inoculated mice were left untreated. (Table N). Two other groups of mice (groups 3 and 4) were injected with KG-1 cells that were previously incubated with CONY1 or 181-scFv (a negative, non-specific control antibody) in serum free RPMI containing 1% BSA at 4° C. for 1 h. The antibodies were used at a concentration of 0.25 mg scFv/10^8 cells (75 μg/mouse). Before injection into the mice the preincubated KG-1 cells were washed and resuspended in RPMI. The KG-1 cells in RPMI were inoculated into mice at a concentration of 75 μg scFv/0.2 ml RPMI per mouse. Group 3 mice were inoculated with KG-1+CONY1, and group 4 mice were inoculated with KG-1+181-scFv. (Table N). This treatment (group 3 and 4) was carried out one day after the inoculation of groups 1-2 and 5-9, i.e., at five days after CYTOXAN injection.
Mice were sacrificed from 60 to 65 days post cell injection. Bone marrow and blood samples were analyzed by flow cytometry using mouse anti human CD34-FITC (IQP 144F) (or anti CD44-FITC (MCA89F, Serotec)) and Y1-Biotin/SAV-PE. Mouse IgG1-FITC (IQP 191-F) was used as an isotype control, and mouse IgG2a-FITC (MCA929F, Serotec) was used as a negative control. Flow cytometry was performed using FACSCalibur system and CellQwest software, Becton Dickinson.
An additional experiment was performed in which SCID-NOD mice were i.v. injected with 3×10^4 MOLT-4 cells/mouse 5 days post treatment with cyclophosphamide. Anti-cancer agents or PBS were injected IV three times/week, from day 14 onward. On day 60, blood was drawn, then the animals were sacrificed. Bone marrow was extracted and analyzed by FACS analysis using a commercially available antiCD44 antibody for the detection of MOLT-4 cells in the mice bone marrow cell population.

Data set [1] relates to scFv Y1 binding to glycocalicin. The experiment in a line: Competitive binding ELISA of sulfated peptides (scFv Y1 binding to immobilized glycocalicin). The following applies: peptide 1, 10 and 100 μM, preincubated 10 minutes with scFv Y1. Further details: species or system human. As to the method:
A competitive binding ELISA assay was used to assess the importance of the presence and position of sulfated tyrosines to the binding of peptides to Y1.
Glycocalicin was immobilized on a Maxisorb plate. scFv Y1 was preincubated with a peptide of interest for 10 minutes at three different concentrations (1, 10 and 100 μM) in order to observe a dose response. (Table 12). After preincubation, the mixture (Y1+peptide) was added to the plate, and binding of scFv Y1 was assessed using polyclonal rabbit anti-VL, which recognizes the VL chain of scFv Y1, followed by anti-rabbit-HRP. In mixtures in which the peptide bound to scFv Y1, a decrease in the binding of scFv Y1 to glycocalicin compared to control binding was observed.
A general note: ELISA stands for enzyme-linked immunosorbent assay.

No end group written: not given here. *: point of attachment. sulfate = O=S(=O)(O)*

Take “Mylotarg: monoclonal antibody (anti CD33) conjugated chemically to calcheamicin”: the “KG-1 cells in bone marrow” value with KG-1 cells (0.2 mg/kg, 1 time per week (group 9)) was “free of KG 1 cells”. For the same compound, the “prevalence of bone marrow cancer, day 60” value in the data set on KG-1 cells (additional experiment, 7 μg/mouse, once a week) is on record as “completely inhibited”.

Take “QATEYEY*LDY*DFLPETE (QATEYEY(sulfate)LDY(sulfate)DFLPETE) [P-YY*Y*, PSGL-1 n-terminus peptide, sulfated]”: in data set [1], the “inhibition of Y1 binding to glycocalicin” value is “best inhibitors”.

For `COc1cccc2c1C(=O)c1c(O)c3c(c(O)c1C2=O)C[C@@](O)(C(=O)CO)C[C@@H]3O[C@H]1C[C@H](N)[C@H](O)[C@H](C)O1` [Doxorubicin], the “percentage of KG-1 cells in bone marrow compared to group 2 (untreated)” value in the data set with KG-1 cells (0.1 mg/kg free Doxorubicin, 3 times per week (group 6)) was “statistically significant (p<0.05) lower percentage of KG-1 cells”. For the same compound, in the data set on KG-1 cells (5 mg/kg free Doxorubicin, 1 time per week (group 7)), the “mice that died within three weeks after treatment initiation” value was “Nine out of 10”. For the same compound, the “reduction in the number of tumor cells in the bone marrow” value in the data set with KG-1 cells (additional experiment, day 60, Doxorubicin alone or as conjugate 75 μg/mouse) came to 50%.

As to “GDEGDTDLY*DY*Y*PEEDTE (GDEGDTDLY(sulfate)DY(sulfate)Y(sulfate)PEEDTE) [G-Y*Y*Y*, GPIbα peptide, sulfated]”, the “inhibition of Y1 binding to glycocalicin” value in data set [1] is “did inhibit”.

The values above are taken from patent US20040001839A1, “Multimers - isolated molecules comprising epitopes containing sulfated moieties, antibodies to such epitopes, and uses thereof” (priority 2000, published 2004).
